Data reported in the kinase profiling compilation of Christmann-Franck et al. (2016).

Columns and labels:
Test in all cases: KINOMEscan competition binding
Conditions in all cases: compound 10.0 µM
CAMK2G (human) = CAMK2G (human) (UniProt Q13555)
CAMKK1 (human) = CAMKK1 (human) (UniProt Q8N5S9)
DYRK2 (human) = DYRK2 (human) (UniProt Q92630)
RPS6KA5 KD2 (human) = RPS6KA5 KD2 (human) (UniProt O75582)
MAP3K6 (human) = MAP3K6 (human) (UniProt O95382)
SRPK1 (human) = SRPK1 (human) (UniProt Q96SB4)
NEK7 (human) = NEK7 (human) (UniProt Q8TDX7)
CDK19 (human) = CDK19 (human) (UniProt Q9BWU1)
PAK4 (human) = PAK4 (human) (UniProt O96013)
[1] = target: JAK3 JH1 catalytic (human) (UniProt P52333)
TNNI3K (human) = TNNI3K (human) (UniProt Q59H18)
EPHB6 (human) = EPHB6 (human) (UniProt O15197)
FER (human) = FER (human) (UniProt P16591)
TNK2 (human) = TNK2 (human) (UniProt Q07912)
MAP3K15 (human) = MAP3K15 (human) (UniProt Q6ZN16)
CAMK2B (human) = CAMK2B (human) (UniProt Q13554)
BLK (human) = BLK (human) (UniProt P51451)
DCLK2 (human) = DCLK2 (human) (UniProt Q8N568)
CAMK2D (human) = CAMK2D (human) (UniProt Q13557)
MTOR (human) = MTOR (human) (UniProt P42345)
CDK9 (human) = CDK9 (human) (UniProt P50750)
PIP5K1C (human) = PIP5K1C (human) (UniProt O60331)
LIMK1 (human) = LIMK1 (human) (UniProt P53667)
SRMS (human) = SRMS (human) (UniProt Q9H3Y6)
CDK2 (human) = CDK2 (human) (UniProt P24941)
MAP3K9 (human) = MAP3K9 (human) (UniProt P80192)
CSNK1A1L (human) = CSNK1A1L (human) (UniProt Q8N752)
STK16 (human) = STK16 (human) (UniProt O75716)
FGFR1 (human) = FGFR1 (human) (UniProt P11362)
MATK (human) = MATK (human) (UniProt P42679)
MAPK8 (human) = MAPK8 (human) (UniProt P45983)
CDKL3 (human) = CDKL3 (human) (UniProt Q8IVW4)
PRKCQ (human) = PRKCQ (human) (UniProt Q04759)
[2] = tested on: RET (human), P07949 [M918T]
IGF1R (human) = IGF1R (human) (UniProt P08069)
MAPK6 (human) = MAPK6 (human) (UniProt Q16659)
MYLK4 (human) = MYLK4 (human) (UniProt Q86YV6)
IRAK3 (human) = IRAK3 (human) (UniProt Q9Y616)
DDR2 (human) = DDR2 (human) (UniProt Q16832)
MAST1 (human) = MAST1 (human) (UniProt Q9Y2H9)

Chain of LIMK1 (human) (P53667 whole entry, looked up): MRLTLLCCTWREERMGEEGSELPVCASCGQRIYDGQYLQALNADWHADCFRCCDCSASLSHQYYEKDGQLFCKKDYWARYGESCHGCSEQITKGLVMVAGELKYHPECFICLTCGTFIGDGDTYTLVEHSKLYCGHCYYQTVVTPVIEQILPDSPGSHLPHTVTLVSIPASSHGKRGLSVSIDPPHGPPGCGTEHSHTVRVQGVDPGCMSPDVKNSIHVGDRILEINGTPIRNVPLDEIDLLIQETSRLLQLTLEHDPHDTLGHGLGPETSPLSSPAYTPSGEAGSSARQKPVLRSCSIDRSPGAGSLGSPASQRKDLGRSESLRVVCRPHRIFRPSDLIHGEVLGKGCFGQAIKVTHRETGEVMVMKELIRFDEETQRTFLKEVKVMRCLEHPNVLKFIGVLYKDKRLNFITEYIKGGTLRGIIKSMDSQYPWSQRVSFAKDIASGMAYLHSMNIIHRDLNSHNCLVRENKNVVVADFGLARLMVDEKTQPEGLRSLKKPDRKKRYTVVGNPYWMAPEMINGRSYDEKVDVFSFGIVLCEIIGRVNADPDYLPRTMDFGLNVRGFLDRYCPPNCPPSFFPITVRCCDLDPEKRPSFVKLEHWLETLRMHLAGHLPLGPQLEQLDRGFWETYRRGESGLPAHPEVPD
Chain of RPS6KA5 KD2 (human) (O75582 whole entry, looked up): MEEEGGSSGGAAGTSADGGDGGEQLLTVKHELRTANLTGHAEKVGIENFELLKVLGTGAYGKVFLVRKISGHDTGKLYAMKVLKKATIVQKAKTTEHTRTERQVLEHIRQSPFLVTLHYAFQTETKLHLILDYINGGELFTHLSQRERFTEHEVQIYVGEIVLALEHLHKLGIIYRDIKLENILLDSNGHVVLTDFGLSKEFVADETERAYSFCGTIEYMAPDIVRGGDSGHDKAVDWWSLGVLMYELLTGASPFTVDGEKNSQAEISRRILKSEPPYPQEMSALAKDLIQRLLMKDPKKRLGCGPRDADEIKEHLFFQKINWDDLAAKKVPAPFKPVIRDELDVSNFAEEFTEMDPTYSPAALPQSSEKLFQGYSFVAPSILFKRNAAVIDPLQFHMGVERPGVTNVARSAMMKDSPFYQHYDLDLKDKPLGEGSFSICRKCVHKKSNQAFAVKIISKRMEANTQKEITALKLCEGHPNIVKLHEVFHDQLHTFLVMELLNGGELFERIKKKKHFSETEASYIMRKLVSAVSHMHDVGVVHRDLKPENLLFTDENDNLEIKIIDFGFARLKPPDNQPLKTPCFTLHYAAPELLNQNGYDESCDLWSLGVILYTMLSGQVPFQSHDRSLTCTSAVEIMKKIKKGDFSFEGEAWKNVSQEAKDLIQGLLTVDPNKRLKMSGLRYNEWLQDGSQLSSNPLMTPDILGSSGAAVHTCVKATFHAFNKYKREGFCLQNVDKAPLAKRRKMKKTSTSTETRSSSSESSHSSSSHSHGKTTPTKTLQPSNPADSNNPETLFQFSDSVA
Chain of DYRK2 (human) (Q92630 whole entry, looked up): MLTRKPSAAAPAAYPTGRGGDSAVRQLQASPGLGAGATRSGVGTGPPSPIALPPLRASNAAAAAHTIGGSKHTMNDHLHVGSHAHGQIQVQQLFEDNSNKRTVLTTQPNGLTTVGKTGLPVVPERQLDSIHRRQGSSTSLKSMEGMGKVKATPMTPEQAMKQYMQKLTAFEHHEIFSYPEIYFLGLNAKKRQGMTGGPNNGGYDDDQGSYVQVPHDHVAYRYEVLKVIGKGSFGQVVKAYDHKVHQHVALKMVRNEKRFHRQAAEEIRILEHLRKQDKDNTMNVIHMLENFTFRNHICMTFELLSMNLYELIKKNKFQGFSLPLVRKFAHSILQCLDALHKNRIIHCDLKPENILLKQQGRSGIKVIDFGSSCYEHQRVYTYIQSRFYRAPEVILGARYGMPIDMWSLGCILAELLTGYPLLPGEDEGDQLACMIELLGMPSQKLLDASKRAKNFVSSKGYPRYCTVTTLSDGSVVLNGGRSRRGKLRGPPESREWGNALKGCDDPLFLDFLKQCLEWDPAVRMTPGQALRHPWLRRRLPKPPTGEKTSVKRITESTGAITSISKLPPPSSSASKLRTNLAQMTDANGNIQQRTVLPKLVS
Chain of TNK2 (human) (Q07912 whole entry, looked up): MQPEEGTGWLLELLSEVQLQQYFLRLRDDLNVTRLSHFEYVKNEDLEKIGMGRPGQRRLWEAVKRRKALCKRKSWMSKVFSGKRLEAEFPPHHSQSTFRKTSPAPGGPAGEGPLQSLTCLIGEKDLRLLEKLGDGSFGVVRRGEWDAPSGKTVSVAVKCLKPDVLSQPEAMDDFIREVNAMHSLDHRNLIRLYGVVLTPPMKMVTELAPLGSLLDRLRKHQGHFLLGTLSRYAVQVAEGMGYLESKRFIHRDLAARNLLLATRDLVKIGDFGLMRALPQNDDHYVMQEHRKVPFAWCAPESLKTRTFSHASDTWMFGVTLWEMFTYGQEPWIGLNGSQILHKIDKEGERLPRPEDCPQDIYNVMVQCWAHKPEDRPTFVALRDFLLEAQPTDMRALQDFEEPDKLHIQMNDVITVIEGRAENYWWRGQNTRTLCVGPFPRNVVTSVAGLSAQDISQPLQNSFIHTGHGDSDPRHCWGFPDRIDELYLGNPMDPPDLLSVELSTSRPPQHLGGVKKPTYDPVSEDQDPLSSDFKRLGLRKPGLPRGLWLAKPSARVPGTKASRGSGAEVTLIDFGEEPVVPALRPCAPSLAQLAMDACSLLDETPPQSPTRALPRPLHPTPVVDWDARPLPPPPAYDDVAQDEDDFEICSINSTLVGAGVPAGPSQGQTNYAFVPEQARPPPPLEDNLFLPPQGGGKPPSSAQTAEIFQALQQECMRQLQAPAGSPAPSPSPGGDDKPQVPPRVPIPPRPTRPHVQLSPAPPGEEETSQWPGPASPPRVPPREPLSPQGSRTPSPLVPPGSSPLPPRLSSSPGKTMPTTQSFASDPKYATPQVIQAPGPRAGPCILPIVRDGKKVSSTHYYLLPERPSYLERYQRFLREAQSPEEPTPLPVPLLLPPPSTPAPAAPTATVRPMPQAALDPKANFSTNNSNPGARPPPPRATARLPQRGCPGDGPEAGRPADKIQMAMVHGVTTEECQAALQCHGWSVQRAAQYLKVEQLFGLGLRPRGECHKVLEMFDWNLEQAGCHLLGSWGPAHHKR
Chain of CAMK2B (human) (Q13554 whole entry, looked up): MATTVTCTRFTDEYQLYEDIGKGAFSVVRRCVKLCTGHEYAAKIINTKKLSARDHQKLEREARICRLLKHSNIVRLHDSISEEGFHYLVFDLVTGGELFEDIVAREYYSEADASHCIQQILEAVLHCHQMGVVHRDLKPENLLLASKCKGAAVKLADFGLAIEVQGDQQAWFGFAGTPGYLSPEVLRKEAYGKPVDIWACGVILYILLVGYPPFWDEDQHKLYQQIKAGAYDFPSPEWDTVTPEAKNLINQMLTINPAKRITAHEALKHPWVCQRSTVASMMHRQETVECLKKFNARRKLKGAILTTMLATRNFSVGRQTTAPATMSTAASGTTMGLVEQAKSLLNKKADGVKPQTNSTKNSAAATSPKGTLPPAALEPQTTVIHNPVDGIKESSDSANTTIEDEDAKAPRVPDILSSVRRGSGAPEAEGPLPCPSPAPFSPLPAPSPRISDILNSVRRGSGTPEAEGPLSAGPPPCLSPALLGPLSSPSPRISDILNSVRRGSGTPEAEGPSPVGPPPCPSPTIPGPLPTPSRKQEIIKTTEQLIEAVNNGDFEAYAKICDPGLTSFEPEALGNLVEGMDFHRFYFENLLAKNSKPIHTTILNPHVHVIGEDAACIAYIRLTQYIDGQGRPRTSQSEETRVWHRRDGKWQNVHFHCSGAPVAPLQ
Chain of DDR2 (human) (Q16832 whole entry, looked up): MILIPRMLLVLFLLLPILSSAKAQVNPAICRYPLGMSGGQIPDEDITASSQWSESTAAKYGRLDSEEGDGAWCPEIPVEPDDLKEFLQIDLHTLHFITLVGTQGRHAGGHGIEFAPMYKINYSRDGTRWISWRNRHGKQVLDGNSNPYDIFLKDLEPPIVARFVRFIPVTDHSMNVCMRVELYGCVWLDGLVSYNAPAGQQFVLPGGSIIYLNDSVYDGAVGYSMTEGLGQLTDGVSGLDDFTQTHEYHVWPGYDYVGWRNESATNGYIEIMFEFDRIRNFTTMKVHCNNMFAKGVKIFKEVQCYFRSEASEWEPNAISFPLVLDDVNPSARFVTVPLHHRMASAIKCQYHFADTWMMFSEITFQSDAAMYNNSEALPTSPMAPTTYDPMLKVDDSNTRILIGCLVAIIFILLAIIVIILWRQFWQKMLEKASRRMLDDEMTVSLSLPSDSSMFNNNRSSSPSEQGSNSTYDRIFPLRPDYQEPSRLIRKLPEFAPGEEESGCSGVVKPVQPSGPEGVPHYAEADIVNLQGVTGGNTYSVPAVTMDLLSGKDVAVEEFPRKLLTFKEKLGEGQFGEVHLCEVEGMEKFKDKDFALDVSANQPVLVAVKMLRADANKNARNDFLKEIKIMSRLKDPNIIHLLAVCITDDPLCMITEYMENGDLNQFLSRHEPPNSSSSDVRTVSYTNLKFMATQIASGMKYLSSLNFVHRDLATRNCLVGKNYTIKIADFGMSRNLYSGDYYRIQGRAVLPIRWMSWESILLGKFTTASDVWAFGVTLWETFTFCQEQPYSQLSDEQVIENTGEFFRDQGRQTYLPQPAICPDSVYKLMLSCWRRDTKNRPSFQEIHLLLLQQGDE
Chain of CDK9 (human) (P50750 whole entry, looked up): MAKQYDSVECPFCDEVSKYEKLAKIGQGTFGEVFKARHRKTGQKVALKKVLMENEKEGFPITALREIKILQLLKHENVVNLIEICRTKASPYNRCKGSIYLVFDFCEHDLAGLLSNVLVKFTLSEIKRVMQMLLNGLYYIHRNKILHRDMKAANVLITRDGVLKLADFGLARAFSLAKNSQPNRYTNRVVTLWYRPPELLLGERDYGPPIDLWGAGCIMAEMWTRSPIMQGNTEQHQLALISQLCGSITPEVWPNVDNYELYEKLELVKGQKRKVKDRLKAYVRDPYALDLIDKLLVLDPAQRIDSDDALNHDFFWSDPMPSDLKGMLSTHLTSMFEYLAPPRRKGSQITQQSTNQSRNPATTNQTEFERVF

Structure (SMILES)	kinase still bound, per cent of control (CAMK2G (human)) [%]	kinase still bound, per cent of control (CAMKK1 (human)) [%]	kinase still bound, per cent of control (DYRK2 (human)) [%]	kinase still bound, per cent of control (RPS6KA5 KD2 (human)) [%]	kinase still bound, per cent of control (MAP3K6 (human)) [%]	kinase still bound, per cent of control (SRPK1 (human)) [%]	kinase still bound, per cent of control (NEK7 (human)) [%]	kinase still bound, per cent of control (CDK19 (human)) [%]	kinase still bound, per cent of control (PAK4 (human)) [%]	kinase still bound, per cent of control [1] [%]	kinase still bound, per cent of control (TNNI3K (human)) [%]	kinase still bound, per cent of control (EPHB6 (human)) [%]	kinase still bound, per cent of control (FER (human)) [%]	kinase still bound, per cent of control (TNK2 (human)) [%]	kinase still bound, per cent of control (MAP3K15 (human)) [%]	kinase still bound, per cent of control (CAMK2B (human)) [%]	kinase still bound, per cent of control (BLK (human)) [%]	kinase still bound, per cent of control (DCLK2 (human)) [%]	kinase still bound, per cent of control (CAMK2D (human)) [%]	kinase still bound, per cent of control (MTOR (human)) [%]	further results
N#CCNC(=O)c1ccc(-c2ccnc(Nc3ccc(N4CCOCC4)cc3)n2)cc1	36	27	76	9.3	100	1.6	2.2	100	100	0.3	100	58	100	93	68	14	100	55	34	100	kinase still bound, per cent of control (CDK9 (human)): 55%; kinase still bound, per cent of control (PIP5K1C (human)): 54%; kinase still bound, per cent of control (LIMK1 (human)): 100%; kinase still bound, per cent of control (SRMS (human)): 100%; kinase still bound, per cent of control (CDK2 (human)): 55%; kinase still bound, per cent of control (MAP3K9 (human)): 45%; kinase still bound, per cent of control (CSNK1A1L (human)): 100%; kinase still bound, per cent of control (STK16 (human)): 6.2%; kinase still bound, per cent of control (FGFR1 (human)): 86%; kinase still bound, per cent of control (MATK (human)): 85%; kinase still bound, per cent of control (MAPK8 (human)): 1%; kinase still bound, per cent of control (CDKL3 (human)): 60%; kinase still bound, per cent of control (PRKCQ (human)): 100%; kinase still bound, per cent of control [2]: 78%; kinase still bound, per cent of control (IGF1R (human)): 100%; kinase still bound, per cent of control (MAPK6 (human)): 71%; kinase still bound, per cent of control (MYLK4 (human)): 0%; kinase still bound, per cent of control (IRAK3 (human)): 22%; kinase still bound, per cent of control (DDR2 (human)): 100%; kinase still bound, per cent of control (MAST1 (human)): 42%
O=c1cc(N2CCOCC2)oc2c(-c3cccc4c3sc3ccccc34)cccc12	86	85	100	80	100	100	100	100	80	81	86	100	100	97	100	80	100	100	80	18	kinase still bound, per cent of control (CDK9 (human)): 98%; kinase still bound, per cent of control (PIP5K1C (human)): 61%; kinase still bound, per cent of control (LIMK1 (human)): 100%; kinase still bound, per cent of control (SRMS (human)): 62%; kinase still bound, per cent of control (CDK2 (human)): 75%; kinase still bound, per cent of control (MAP3K9 (human)): 100%; kinase still bound, per cent of control (CSNK1A1L (human)): 92%; kinase still bound, per cent of control (STK16 (human)): 98%; kinase still bound, per cent of control (FGFR1 (human)): 93%; kinase still bound, per cent of control (MATK (human)): 99%; kinase still bound, per cent of control (MAPK8 (human)): 88%; kinase still bound, per cent of control (CDKL3 (human)): 100%; kinase still bound, per cent of control (PRKCQ (human)): 100%; kinase still bound, per cent of control [2]: 98%; kinase still bound, per cent of control (IGF1R (human)): 97%; kinase still bound, per cent of control (MAPK6 (human)): 100%; kinase still bound, per cent of control (MYLK4 (human)): 100%; kinase still bound, per cent of control (IRAK3 (human)): 41%; kinase still bound, per cent of control (DDR2 (human)): 100%; kinase still bound, per cent of control (MAST1 (human)): 100%
COc1cc(C(=O)N2CCC(N3CCN(C)CC3)CC2)ccc1Nc1ncc2c(n1)N(C)c1ccccc1C(=O)N2C	47	73	76	92	100	94	100	100	94	100	100	31	51	18	69	62	97	0.45	28	97	kinase still bound, per cent of control (CDK9 (human)): 100%; kinase still bound, per cent of control (PIP5K1C (human)): 96%; kinase still bound, per cent of control (LIMK1 (human)): 95%; kinase still bound, per cent of control (SRMS (human)): 77%; kinase still bound, per cent of control (CDK2 (human)): 100%; kinase still bound, per cent of control (MAP3K9 (human)): 93%; kinase still bound, per cent of control (CSNK1A1L (human)): 100%; kinase still bound, per cent of control (STK16 (human)): 62%; kinase still bound, per cent of control (FGFR1 (human)): 86%; kinase still bound, per cent of control (MATK (human)): 100%; kinase still bound, per cent of control (MAPK8 (human)): 95%; kinase still bound, per cent of control (CDKL3 (human)): 83%; kinase still bound, per cent of control (PRKCQ (human)): 100%; kinase still bound, per cent of control [2]: 100%; kinase still bound, per cent of control (IGF1R (human)): 96%; kinase still bound, per cent of control (MAPK6 (human)): 100%; kinase still bound, per cent of control (MYLK4 (human)): 80%; kinase still bound, per cent of control (IRAK3 (human)): 100%; kinase still bound, per cent of control (DDR2 (human)): 100%; kinase still bound, per cent of control (MAST1 (human)): 100%
